# What was measured:
# [1] = tested on: Aβ40 in conditioned medium of cells stably expressing Amyloid Precursor Protein (APP); assay: In vitro BACE cell-based assay (HEK cell assay), Aβ40 sandwich ELISA; conditions: Homo sapiens, HEK293, 24 h, inhibition of Aβ40, 24 h incubation, read-out: HEK cell assay (IC50 class)
# Summary of the method: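 Aβ40 in conditioned medium measured after 24 h compound exposure (10-point series, 100 μM or 10 μM start, 0.1% DMSO) of cells stably expressing APP, seeded 40K/well. Detection: pAb40/6E10-biotin sandwich ELISA at 4°C with time-resolved europium read-out; IC50 derived from percent of control.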
# [2] = biological target: BACE1 (Homo sapiens, UniProt P56817); assay: In vitro enzymatic BACE FRET assay; format: biochemical; conditions: beta secretase enzyme 0.2 nM, FRET substrate 50 nM, pH 4.2; read-out: BACE1 FRET assay (IC50 class)
# Summary of the method: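 Enzyme activity was measured as release of quenching from a 50 nM fluorophore/quencher peptide spanning the cleavage site, over 1 h. This followed 1 h pre-incubation of 0.2 nM enzyme with compound dilutions at pH 4.2 (acetate, 10% DMSO, genapol). Tris addition ended the reaction before fluorescence was measured.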
# Chain of BACE1 (P56817 46-501, species assumed): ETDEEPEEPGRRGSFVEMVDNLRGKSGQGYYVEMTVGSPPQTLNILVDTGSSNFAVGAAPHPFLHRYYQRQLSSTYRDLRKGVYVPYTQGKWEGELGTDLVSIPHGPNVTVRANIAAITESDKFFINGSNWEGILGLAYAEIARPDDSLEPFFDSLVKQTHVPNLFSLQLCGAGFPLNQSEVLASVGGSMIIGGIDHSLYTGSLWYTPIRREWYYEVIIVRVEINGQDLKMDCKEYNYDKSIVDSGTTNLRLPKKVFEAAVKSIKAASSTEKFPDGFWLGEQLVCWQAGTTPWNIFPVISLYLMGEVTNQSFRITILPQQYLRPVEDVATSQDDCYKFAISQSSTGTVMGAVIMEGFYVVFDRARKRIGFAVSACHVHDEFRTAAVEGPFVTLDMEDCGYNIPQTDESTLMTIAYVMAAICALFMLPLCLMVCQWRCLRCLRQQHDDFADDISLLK
IC50 [1],IC50 [2],Compound
> 5000 nM,100 to 500 nM,"Cc1coc(-c2cccc(C)c2-c2ccc3nc(N)c(N4CCOCC4)cc3c2)n1 [Example 31, 6-(2-methyl-6-(4-methyloxazol-2-yl)phenyl)-3-morpholinoquinolin-2-amine]"
1010 to 5000 nM,< 100 nM,"Cc1cccc(C(=O)N2CCC[C@@H](C)C2)c1-c1ccc2nc(N)c(N3CCOCC3)cc2c1 [Example 77, (R)-(2-(2-amino-3-morpholinoquinolin-6-yl)-3-methylphenyl)(3-methylpiperidin-1-yl)methanone]"
1010 to 5000 nM,100 to 500 nM,"Nc1nc2ccc(-c3c(F)cccc3C(=O)N3CCCC3)cc2cc1N1CCOCC1 [Example 148, (2-(2-amino-3-morpholinoquinolin-6-yl)-3-fluorophenyl)(pyrrolidin-1-yl)methanone]"
1010 to 5000 nM,< 100 nM,"CCCC(C)N(C)C(=O)c1cccc(C)c1-c1ccc2nc(N)c(N3CCOCC3)cc2c1 (stereo not shown) [Example 120, 2-(2-amino-3-morpholinoquinolin-6-yl)-N,3-dimethyl-N-(pentan-2-yl)benzamide]"
< 100 nM,< 100 nM,"Cc1cccc(C(=O)N2CCCC2)c1-c1ccc2nc(N)c(C3CCOCC3)cc2c1 [Example 28, (2-(2-amino-3-(tetrahydro-2H-pyran-4-yl)quinolin-6-yl)-3-methylphenyl)(pyrrolidin-1-yl)methanone]"
1010 to 5000 nM,100 to 500 nM,"CCN(C(=O)c1cccc(C)c1-c1ccc2nc(N)c(N3CCOCC3)cc2c1)C1CC1 [Example 107, 2-(2-amino-3-morpholinoquinolin-6-yl)-N-cyclopropyl-N-ethyl-3-methylbenzamide]"
1010 to 5000 nM,< 100 nM,"Cc1cccc(-n2cc(Cl)c(C)n2)c1-c1ccc2nc(N)c(N3CCOCC3)cc2c1 [Example 34, 6-(2-(4-chloro-3-methyl-1H-pyrazol-1-yl)-6-methylphenyl)-3-morpholinoquinolin-2-amine]"
501 to 1000 nM,< 100 nM,"Nc1nc2ccc(-c3c(Cl)cccc3C(=O)N3CCCC3)cc2cc1N1CCOCC1 [Example 42, (2-(2-amino-3-morpholinoquinolin-6-yl)-3-chlorophenyl)(pyrrolidin-1-yl)methanone]"
501 to 1000 nM,< 100 nM,"Cc1cccc(C(=O)N2CCCC(C)C2)c1-c1ccc2nc(N)c(N3CCOCC3)cc2c1 (stereo not shown) [Example 115, (2-(2-amino-3-morpholinoquinolin-6-yl)-3-methylphenyl)(3-methylpiperidin-1-yl)methanone]"
501 to 1000 nM,< 100 nM,"Cc1cccc(C(=O)N(C)C(C)(C)C)c1-c1ccc2nc(N)c(N3CCOCC3)cc2c1 [Example 123, 2-(2-amino-3-morpholinoquinolin-6-yl)-N-tert-butyl-N,3-dimethylbenzamide]"
1010 to 5000 nM,1010 to 5000 nM,"Cc1cccc(C(c2ccccc2)n2ccnc2)c1-c1ccc2nc(N)c(N3CCOCC3)cc2c1 (stereo not shown) [Example 8, 6-(2-((1H-imidazol-1-yl)(phenyl)methyl)-6-methylphenyl)-3-morpholinoquinolin-2-amine]"
100 to 500 nM,100 to 500 nM,"Cc1cccc(C(N)c2ccccn2)c1-c1ccc2nc(N)c(N3CCOCC3)cc2c1 (stereo not shown) [Example 196, 6-(2-(amino(pyridin-2-yl)methyl)-6-methylphenyl)-3-morpholinoquinolin-2-amine]"
1010 to 5000 nM,100 to 500 nM,"COCCC1CCCCN1C(=O)c1cccc(C)c1-c1ccc2nc(N)c(N3CCOCC3)cc2c1 (stereo not shown) [Example 83, (2-(2-amino-3-morpholinoquinolin-6-yl)-3-methylphenyl)(2-(2-methoxyethyl)piperidin-1-yl)methanone]"
1010 to 5000 nM,< 100 nM,"Cc1cccc(C(=O)c2cccc(Cl)c2)c1-c1ccc2nc(N)c(N3CCOCC3)cc2c1 [Example 174, (2-(2-amino-3-morpholinoquinolin-6-yl)-3-methylphenyl)(3-chlorophenyl)methanone]"
501 to 1000 nM,< 100 nM,"CCC1CCCN1C(=O)c1cccc(C)c1-c1ccc2nc(N)c(N3CCOCC3)cc2c1 (stereo not shown) [Example 65, (2-(2-amino-3-morpholinoquinolin-6-yl)-3-methylphenyl)(2-ethylpyrrolidin-1-yl)methanone]"
< 100 nM,< 100 nM,"COc1ccccc1C(=N)c1cccc(C)c1-c1ccc2nc(N)c(N3CCOCC3)cc2c1 [Example 6, 6-(2-(imino(2-methoxyphenyl)methyl)-6-methylphenyl)-3-morpholinoquinolin-2-amine]"
1010 to 5000 nM,100 to 500 nM,"Cc1cccc(C(=O)N2CC(C)CC(C)C2)c1-c1ccc2nc(N)c(N3CCOCC3)cc2c1 (stereo not shown) [Example 88, (2-(2-amino-3-morpholinoquinolin-6-yl)-3-methylphenyl)(3,5-dimethylpiperidin-1-yl)methanone]"
501 to 1000 nM,< 100 nM,"Cc1cccc(C(=O)N(C)CC(C)C)c1-c1ccc2nc(N)c(N3CCOCC3)cc2c1 [Example 104, 2-(2-amino-3-morpholinoquinolin-6-yl)-N-isobutyl-N,3-dimethylbenzamide]"

IC50 [1],IC50 [2],Compound
> 5000 nM,501 to 1000 nM,"Nc1nc2ccc(-c3ccccc3Cl)cc2cc1N1CCOCC1 [Example 219, 6-(2-chlorophenyl)-3-morpholinoquinolin-2-amine]"
501 to 1000 nM,< 100 nM,"Cc1cccc(C(=O)N2CCC(F)(F)CC2)c1-c1ccc2nc(N)c(N3CCOCC3)cc2c1 [Example 109, (2-(2-amino-3-morpholinoquinolin-6-yl)-3-methylphenyl)(4,4-difluoropiperidin-1-yl)methanone]"
501 to 1000 nM,100 to 500 nM,"Cc1cccc(-c2nnc3ccccn23)c1-c1ccc2nc(N)c(N3CCOCC3)cc2c1 [Example 22, 6-(2-([1,2,4]triazolo[4,3-a]pyridin-3-yl)-6-methylphenyl)-3-morpholinoquinolin-2-amine]"
< 100 nM,< 100 nM,"CC(C)(C)CCc1cccc(C(=O)N2CC[C@@H](F)C2)c1-c1ccc2nc(N)c(N3CCOCC3)cc2c1 [Example 47, (R)-(2-(2-amino-3-morpholinoquinolin-6-yl)-3-(3,3-dimethylbutyl)phenyl)(3-fluoropyrrolidin-1-yl)methanone]"
1010 to 5000 nM,100 to 500 nM,"CCN(C)C(=O)c1cccc(C)c1-c1ccc2nc(N)c(N3CCOCC3)cc2c1 [Example 121, 2-(2-amino-3-morpholinoquinolin-6-yl)-N-ethyl-N,3-dimethylbenzamide]"
1010 to 5000 nM,< 100 nM,"Cc1cccc(C(=O)c2ccccc2)c1-c1ccc2nc(N)c(N3CCOCC3)cc2c1 [Example 2, (2-(2-amino-3-morpholinoquinolin-6-yl)-3-methylphenyl)(phenyl)methanone]"
1010 to 5000 nM,100 to 500 nM,"Cc1cccc(C(=O)N(C)Cc2ccccc2)c1-c1ccc2nc(N)c(N3CCOCC3)cc2c1 [Example 136, 2-(2-amino-3-morpholinoquinolin-6-yl)-N-benzyl-N,3-dimethylbenzamide]"
1010 to 5000 nM,100 to 500 nM,"Nc1nc2ccc(-c3c(C(=O)N4CCCC4)cccc3C(F)(F)F)cc2cc1N1CCOCC1 [Example 155, (2-(2-amino-3-morpholinoquinolin-6-yl)-3-(trifluoromethyl)phenyl)(pyrrolidin-1-yl)methanone]"
501 to 1000 nM,< 100 nM,"Cc1cccc(C(=O)N2CCC(C(C)(C)C)CC2)c1-c1ccc2nc(N)c(N3CCOCC3)cc2c1 [Example 93, (2-(2-amino-3-morpholinoquinolin-6-yl)-3-methylphenyl)(4-tert-butylpiperidin-1-yl)methanone]"
501 to 1000 nM,< 100 nM,"CO/N=C(\c1ccccc1)c1cccc(C)c1-c1ccc2nc(N)c(N3CCOCC3)cc2c1 [Example 15, (E)-(2-(2-amino-3-morpholinoquinolin-6-yl)-3-methylphenyl)(phenyl)methanone O-methyl oxime]"
501 to 1000 nM,< 100 nM,"Cc1cccc(C(=O)N(C)C2CCCC2)c1-c1ccc2nc(N)c(N3CCOCC3)cc2c1 [Example 92, 2-(2-amino-3-morpholinoquinolin-6-yl)-N-cyclopentyl-N,3-dimethylbenzamide]"
100 to 500 nM,< 100 nM,"Cc1cccc(C(=O)N2CCCC(C)(C)C2)c1-c1ccc2nc(N)c(N3CCOCC3)cc2c1 [Example 86, (2-(2-amino-3-morpholinoquinolin-6-yl)-3-methylphenyl)(3,3-dimethylpiperidin-1-yl)methanone]"
100 to 500 nM,< 100 nM,"Cc1cccc(C(=O)N2CCCC2C)c1-c1ccc2nc(N)c(N3CCOCC3)cc2c1 (stereo not shown) [Example 67, (2-(2-amino-3-morpholinoquinolin-6-yl)-3-methylphenyl)(2-methylpyrrolidin-1-yl)methanone]"
100 to 500 nM,< 100 nM,"Cc1cccc(C(=O)OC2CCCC2)c1-c1ccc2nc(N)c(N3CCOCC3)cc2c1 [Example 19, cyclopentyl 2-(2-amino-3-morpholinoquinolin-6-yl)-3-methylbenzoate]"
501 to 1000 nM,< 100 nM,"Nc1nc2ccc(-c3ccccc3C(=O)OC3CCCC3)cc2cc1N1CCOCC1 [Example 145, cyclopentyl 2-(2-amino-3-morpholinoquinolin-6-yl)benzoate]"
1010 to 5000 nM,100 to 500 nM,"Cc1cccc(C(=O)N(C)C)c1-c1ccc2nc(N)c(N3CCOCC3)cc2c1 [Example 134, 2-(2-amino-3-morpholinoquinolin-6-yl)-N,N,3-trimethylbenzamide]"
1010 to 5000 nM,100 to 500 nM,"CCCN(C)C(=O)c1cccc(C)c1-c1ccc2nc(N)c(N3CCOCC3)cc2c1 [Example 110, 2-(2-amino-3-morpholinoquinolin-6-yl)-N,3-dimethyl-N-propylbenzamide]"
